# Results published in patent publication EP0241837B1, “Stable injectable antiemetic compositions” (Bristol-Myers Squibb Company, priority 1986, dated 1987).
# Where two headings read alike, the source gives them in different places.
# Test: Stability of Compound Ia (5 mg/ml) in aqueous solutions on storage at 56°C
# Assay type: physicochemical
# Settings: for % Remaining (8 weeks): 80640 min; for remaining at 168 h: 1 week; for remaining at 336 h: 2 weeks
# Protocol: The compounds of Formula I in aqueous, isotonic (isotonicity adjusted with sodium chloride and/or dextrose) and buffered ([…], pH 5.7 and 6.5) formulations containing the equivalent of 5 mg of free base of a compound of Formula I per ml have been found unsuitable for long term shelf life. Typical isotonic and buffered formulations lost 33% and 40%, respectively, of their potency following storage for eight weeks at 56°C. […] Tables 1 and 2 give the results of stability tests on the compound of Formula Ia in water and in isotonic saline, and in citrate buffers, respectively.
# Tables 3 and 4, below, provide stability data for some of the stable injectable formulations of the present invention.
# [1] = 0.01m citrate buffer, pH 5.7, 5 mg/ml in 0.01M citrate buffer pH 5.7, 56°C, average of duplicate samples, read-out: % Remaining(a) (pH 5.7)
# [2] = 0.01m citrate buffer, pH 6.5, 5 mg/ml in 0.01M citrate buffer pH 6.5, 56°C, average of duplicate samples, read-out: % Remaining(a) (pH 6.5)
# [3] = isotonic saline, 5mg/ml in isotonic saline, 56°C, average of duplicate samples, read-out: % Remaining(a) (Isotonic Saline)
# [4] = water, 5mg/ml in water, 56°C, average of duplicate samples, read-out: % Remaining(a) (Water)
structure (smiles),measurement,setting,value
"CCN(CC)CCNC(=O)c1cc(Cl)c(N)cc1OC(C)C(C)=O (stereo not shown) [Compound Ia, 4-amino-2-(2-butanon-3-yl)-oxy-5-chloro-N-[2-(diethylamino)ethyl]benzamide]",% Remaining(a) (pH 5.7),"5 mg/ml in 0.01M citrate buffer pH 5.7, 56°C, Initial, average of duplicate samples",100.0%
same,% Remaining(a) (pH 6.5),"5 mg/ml in 0.01M citrate buffer pH 6.5, 56°C, Initial, average of duplicate samples",100.0%
same,% Remaining(a) (Isotonic Saline),"5mg/ml in isotonic saline, 56°C, Initial, average of duplicate samples",100.0%
same,% Remaining(a) (Water),"5mg/ml in water, 56°C, Initial, average of duplicate samples",100.0%
same,% Remaining (8 weeks),"5mg/ml, Ethanol/Water (v/v) 0/100, calculated dielectric constant 78.5, 56°C, 8 weeks",89.4%
same,% Remaining (8 weeks),"5mg/ml, Ethanol/Water (v/v) 25/75, calculated dielectric constant 64.9, 56°C, 8 weeks",97.5%
same,% Remaining (8 weeks),"5mg/ml, Ethanol/Water (v/v) 50/50, calculated dielectric constant 51.4, 56°C, 8 weeks",99.1%
same,remaining at 168 h,[1],94.8%
same,remaining at 336 h,[1],87.8%
same,remaining at 672 h,"0.01m citrate buffer, pH 5.7, 5 mg/ml in 0.01M citrate buffer pH 5.7, 56°C, 4 weeks, average of duplicate samples, read-out: % Remaining(a) (pH 5.7)",77.2%
same,remaining at 1344 h,"0.01m citrate buffer, pH 5.7, 5 mg/ml in 0.01M citrate buffer pH 5.7, 56°C, 8 weeks, average of duplicate samples, read-out: % Remaining(a) (pH 5.7)",58.9%
same,remaining at 168 h,[2],93.6%
same,remaining at 336 h,[2],87.9%
same,remaining at 672 h,"0.01m citrate buffer, pH 6.5, 5 mg/ml in 0.01M citrate buffer pH 6.5, 56°C, 4 weeks, average of duplicate samples, read-out: % Remaining(a) (pH 6.5)",77.5%
same,remaining at 1344 h,"0.01m citrate buffer, pH 6.5, 5 mg/ml in 0.01M citrate buffer pH 6.5, 56°C, 8 weeks, average of duplicate samples, read-out: % Remaining(a) (pH 6.5)",60.3%
same,remaining at 672 h,"5% (w/v) glycerol, 5mg/ml, solvent 5% (w/v) Glycerol, calculated dielectric constant 76.3, 56°C, 4 weeks, read-out: % Remaining (4 weeks)",95.1%
same,remaining at 1344 h,"5% (w/v) glycerol, 5mg/ml, solvent 5% (w/v) Glycerol, calculated dielectric constant 76.3, 56°C, 8 weeks, read-out: %Remaining (8 weeks)",90.9%
same,remaining at 672 h,"15% (w/v) glycerol, 5mg/ml, solvent 15% (w/v) Glycerol, calculated dielectric constant 71.8, 56°C, 4 weeks, read-out: % Remaining (4 weeks)",96.5%
same,remaining at 1344 h,"15% (w/v) glycerol, 5mg/ml, solvent 15% (w/v) Glycerol, calculated dielectric constant 71.8, 56°C, 8 weeks, read-out: %Remaining (8 weeks)",94.2%
same,remaining at 672 h,"25% (w/v) glycerol, 5mg/ml, solvent 25% (w/v) Glycerol, calculated dielectric constant 71.4, 56°C, 4 weeks, read-out: % Remaining (4 weeks)",96.8%
same,remaining at 1344 h,"25% (w/v) glycerol, 5mg/ml, solvent 25% (w/v) Glycerol, calculated dielectric constant 71.4, 56°C, 8 weeks, read-out: %Remaining (8 weeks)",95.3%
same,remaining at 672 h,"25% (w/v) propylene glycol, 5mg/ml, solvent 25% (w/v) Propylene Glycol, calculated dielectric constant 67.3, 56°C, 4 weeks, read-out: % Remaining (4 weeks)",97.7%
same,remaining at 1344 h,"25% (w/v) propylene glycol, 5mg/ml, solvent 25% (w/v) Propylene Glycol, calculated dielectric constant 67.3, 56°C, 8 weeks, read-out: %Remaining (8 weeks)",96.8%
same,remaining at 672 h,"ethanol/water 0/100, 5mg/ml, Ethanol/Water (v/v) 0/100, calculated dielectric constant 78.5, 56°C, 4 weeks, read-out: % Remaining (4 weeks)",94.9%
same,remaining at 672 h,"ethanol/water 25/75, 5mg/ml, Ethanol/Water (v/v) 25/75, calculated dielectric constant 64.9, 56°C, 4 weeks, read-out: % Remaining (4 weeks)",98.7%
same,remaining at 672 h,"ethanol/water 50/50, 5mg/ml, Ethanol/Water (v/v) 50/50, calculated dielectric constant 51.4, 56°C, 4 weeks, read-out: % Remaining (4 weeks)",99.5%
same,remaining at 672 h,"ethanol/water 75/25, 5mg/ml, Ethanol/Water (v/v) 75/25, calculated dielectric constant 37.8, 56°C, 4 weeks, read-out: % Remaining (4 weeks)",99.6%
same,remaining at 168 h,[3],96%
same,remaining at 336 h,[3],91.6%
same,remaining at 672 h,"isotonic saline, 5mg/ml in isotonic saline, 56°C, 4 weeks, average of duplicate samples, read-out: % Remaining(a) (Isotonic Saline)",83.5%
same,remaining at 1344 h,"isotonic saline, 5mg/ml in isotonic saline, 56°C, 8 weeks, average of duplicate samples, read-out: % Remaining(a) (Isotonic Saline)",66.9%
same,remaining at 168 h,[4],97.4%
same,remaining at 336 h,[4],95.5%
same,remaining at 672 h,"water, 5mg/ml in water, 56°C, 4 weeks, average of duplicate samples, read-out: % Remaining(a) (Water)",90.8%
same,remaining at 1344 h,"water, 5mg/ml in water, 56°C, 8 weeks, average of duplicate samples, read-out: % Remaining(a) (Water)",80.5%
same,remaining at 672 h,"water, 5mg/ml, solvent Water, calculated dielectric constant 78.5, 56°C, 4 weeks (Table 4), read-out: % Remaining (4 weeks)",94.9%
same,remaining at 1344 h,"water, 5mg/ml, solvent Water, calculated dielectric constant 78.5, 56°C, 8 weeks (Table 4), read-out: %Remaining (8 weeks)",88.1%
